Assay results as given in patent publication US20140314857A1, “FORMULATIONS FOR ENHANCED BIOAVAILABILITY OF ZANAMIVIR” (priority 2012, published 2014).

Test system: Caco-2 cell monolayers
Assay: Initial screening of permeability enhancers with peramivir across Caco-2 cell monolayers
Settings: with glycerol or Capmul MCM L8 as enhancer; results not shown

CCC(CC)[C@H](NC(C)=O)[C@@H]1[C@H](O)[C@@H](C(=O)O)C[C@H]1N=C(N)N [peramivir] was tested, and the “drug transport across Caco-2 cell monolayers” value was “substantially increased drug transport”.
